Results as given in US7585637B2, “Estrogen related receptor, ERRα, a regulator of bone formation” (priority 1999, dated 2009).

Key:
ERRα mRNA = ERRα mRNA expression (Northern blot) in RC cells treated with hormones or growth factors; assay type: cell-based, rat; details: for effect of acute exposure on ERRα mRNA levels: 24 hours beginning at day 9 or day 15 (E2, D3) or day 7 and day 15 (TGFβ); for stimulation of ERRα mRNA expression at times later than day 6 / stimulation (increase) of ERRα mRNA expression: RC cells treated continuously; for stimulation (increase) of ERRα mRNA expression: E2 10^−8M, D3 10^−9M, TGFβ 10^−10 M
Procedure: (§1) Cells were enzymatically isolated from the calvaria of 21 d Wistar rat fetuses by sequential digestion with collagenase as described previously (Bellows, 1986). Cells obtained from the last four of the five digestion steps (populations II-V) were pooled and plated in T-75 flasks in α-MEM containing 15% heat-inactivated FBS (Flow Laboratories, McLean, Va.) and antibiotics comprising […] penicillin G (Sigma Chemical Co., St. Louis, Mo.), […] gentamycin (Sigma), and […] fungizone (Flow Laboratories). After 24 h incubation, attached cells were washed with PBS to remove nonviable cells and other debris, and then collected by trypsinization using 0.01% trypsin in citrate saline. Aliquots were counted with a Coulter Counter (Coulter Electronics, Hialeah Fla.), and the remaining cells were resuspended in the standard medium described above. The resuspended cells were plated into 100 mm tissue culture dishes at 10^5 cells/dish, into 35 mm tissue culture dishes at 2×10^4/dish and in 24 wells plates at 10^4 cells/well. […] Medium was changed every 2 days. All dishes were incubated at 37° C. in a humidified atmosphere in a 95% air/5% CO2 incubator.
Total RNA was extracted with guanidine from RC cells at different times of the culture corresponding to different stages of proliferation, differentiation and bone nodule formation (Current Protocols in Molecular Biology, vol. 1, 1996). Northern blots were prepared and hybridized with a 750bp fragment corresponding to the rat 3′ UTR of ERRα according to standard procedures (Chirgwin et al, 1979). Rat α1 COLL-I (Genovese et al.) was a 900bp cDNA PstI fragment containing the entire 3′ noncoding region and one-half of the C-terminal of the propeptide of the α1 chain of type I. Rat bone/liver/kidney ALP (Noda et al., 1987) was a 600 bp cDNA EcoRI fragment obtained by digesting pRAP54 with BssHII-XhoI to remove 1.8 kb of the 5′ region and religating the blunt ends. Rat OPN was a 700 bp cDNA BamHI-EcoRI fragment obtained by digesting the full length cDNA with PvuI to remove 800 bp of 5′ region and ligating the blunt ended fragment into SmaI cut pGEM-7Zf(+) vector (Promega, Madison, Wis.). Rat OCN was a partial cDNA containing 350 bp of the 3′ UTR isolated with OCN-specific primers from a λgt11 library prepared from ROS 17/2.8 cells, rat BSP was a partial cDNA containing 500bp of 3′ region isolated with BSP-specific primers from a λgt11 library prepared from RC cells forming bone nodules, and rat L32 was generated from RC cell mRNA by PCR using specifics primers; the identities of the OCN, BSP and L32 probes were confirmed by sequencing (Liu et al., 1994).

[1] = system: primary rat calvaria (RC) cells; experiment: Cell number (cell counting) in RC cell cultures treated with ERRα antisense/sense oligonucleotides; assay type: cell-based
Procedure: as §1
For cell growth analysis, the cell layers were rinsed in PBS, released with trypsin and collagenase (1:1, vol/vol, of solutions described above), and the harvested cells were counted electronically. Results are plotted as the average of three counts for each of three dishes for control and pcDNA3-ERRα or three wells for each concentration of antisense or sense primers used.
(§2) The resuspended RC cells were plated in 24 wells plates at 10^4 cells/well. Antisense oligonucleotide inhibition of ERRα expression was accomplished with a 20-base phosphorotbioate-modified oligonucleotide, localized to the A/B domain. The ERRα antisense oligonucleatide sequence was: 5′[…]-3′(SEQ ID NO:30). Control dishes were treated with the complementary sense oligonucleotide or no oligonucleotide. Preliminary experiments were done to determine effective oligonucleotide concentrations that were not toxic. […] Medium was changed every 2 days and fresh oligonucleotides were added. mRNA was collected at day 6 for the proliferation experiments and at day 15 for the differentiation experiments. Nodules were counted at 15 days.

[2] = system: primary rat calvaria (RC) cells; experiment: Mineralized bone nodule formation (von Kossa) in RC cell cultures treated with antisense/sense oligonucleotides; assay type: cell-based; details: for decrease in mineralized bone nodule formation: treated day 5 to day 11; for decrease in mineralized bone nodule number: treated days 1-6 then normal differentiation medium, day 15
Procedure: as §1
For quantification of nodule formation, dishes or wells were fixed and stained by the Von Kossa technique and bone nodules were counted on a grid (Bellows et al., 1986; Bellows and Aubin, 1989). Results are plotted as the mean number of nodules±SD of three wells for controls and each concentration of antisense or sense primers and five dishes for pcDNA3 control and pcDNA3-ERRα.
as §2

[3] = system: ALP, BSP, OPN, OCN, cbfa1, COLLI, Cyclin D1, c-Fos, Bcl2, Bax; experiment: RT-PCR of osteoblast, proliferation and apoptosis markers in antisense-treated RC cells; assay type: cell-based, rat
Procedure: Samples of total cellular RNA (1.5-5 μg) were reverse-transcribed using oligo dT and the first strand synthesis kit of Superscript™ II, Gibco BRL. PCR was performed with specific primers specific for ERRα. Primers, located in different exons, were as follows: […]
Osteoblast-associated and other markers were also amplified by PCR using specific primers for rat OCN, OPN, ALP, BSP, Cbfa1, COLL I (collagen type I α chain), C-fos, Cyclin D1, Bax and Bcl-2. PCR was done for 25 cycles (94° C. for 1 min, 55° C. for 1 min, 72° C. for 1 min and a final elongation step of 7 min at 72° C.) for OCN, OPN, ALP, BSP, L32, Bax and 30 cycles for Bcl-2, 32 cycles for c-Fos, 35 cycles for Cyclin D1 and Cbfa1 (with annealing temperatures of 58° C. and 62° C. respectively and 23 cycles for COLLI with annealing temperature of 59° C.
as §2

ERRα = experiment: Immunocytochemistry for ERRα on bone nodules after oligonucleotide treatment; assay type: cell-based, rat; details: 24 h of treatment; 1 μM
Procedure: Immunolabelling of cultures was done essentially as described previously (Turksen, 1991; Turksen, 1992). Cultures were rinsed with PBS, fixed with 3.7% formaldehyde in PBS and permeabilized with methanol at −20° C. Frozen sections were fixed 10 min in cold acetone. Paraffine sections were treated deparaffined in xylene, then rehydrated in 100%, 95% and 70% ethanol and water. After rinsing, cells in dishes or frozen, paraffine sections were incubated for 1 h at room temperature with 10% normal serum in PBS for ERRα and ERα and in 3% BSA in PBS (denaturated) for ERβ OCN, ALP, OPN, and BSP. After rinsing, cells or sections were incubated for 1.5 hours with appropriate dilutions of primary antibodies (1/50, anti-ERRα; anti-ERα or anti-ERβ (MC-20 or Y-19, respectively; Santa Cruz Biotechnology, Inc))(Shim et al, 1999; Saji et al, 2000; Tremblay et al 1999). The anti-rat OCN antiserum was kindly provided by Dominique Modrowski (INSERM U349, Hopital Lariboisiere, Paris, France) and used at 1/100 dilution. The anti-OPN MPIIIB10) and anti-BSP (WWVIDI) antibodies were purchased from the Hybridoma Bank (Iowa City, Iowa) and used at a 1/800 and 1/500 dilution respectively. […]

[4] = treated days 1-6, day 15, vs control or sense-treated

CCCCC[C@H](O)/C=C/[C@H]1[C@H](O)CC(=O)[C@@H]1C/C=C\CCCC(=O)O [PGE2]
effect on ERRα expression (ERRα mRNA; RC cells, PGE2 10^−9 M, Dex): Neither PGE2 nor Dex had any significant effect

5′TCACCGGGGGTTCAGTCTCA-3′(SEQ ID NO:30) (all phosphorothioate, sugars by position and methylation of C not given here) [antisense oligonucleotide]
decrease in cell number ([1]; RC cells treated days 1-6, counted at day 6, 1 μM, vs sense or untreated controls): 30% | decrease in cell number ([1]; RC cells treated days 1-6, counted at day 6, 2 μM, vs sense or untreated controls): 40% | decrease in cell number ([1]; treated day 5 to day 11, by day 15, 1 μM): 19% | decrease in cell number ([1]; treated day 5 to day 11, by day 15, 2 μM): 35% | decrease in mineralized bone nodule formation ([2]; 0.5 μM): 30% | decrease in mineralized bone nodule formation ([2]; 1 μM): 60% | decrease in mineralized bone nodule formation ([2]; 2 μM): 100% | decrease in mineralized bone nodule number ([2]; 1 μM): 29% | decrease in mineralized bone nodule number ([2]; 2 μM): 45% | decrease in the number of mineralized bone nodules formed ([2]; treated days 9-15, 1 μM): 17% | decrease in the number of mineralized bone nodules formed ([2]; treated days 9-15, 2 μM): 27% | surface area covered by bone nodules that did form ([2]; treated days 9-15, compared to control cultures): greater surface area | ALP expression ([3]; treated day 5 to day 11): not affected | BSP expression ([3]; treated day 5 to day 11): decreased | COLLI expression ([3]; treated day 5 to day 11): not affected | OCN expression ([3]; treated day 5 to day 11): decreased | OPN expression ([3]; treated day 5 to day 11): not affected | cbfa1 expression ([3]; treated day 5 to day 11): decreased | ALP expression ([3]; treated days 1-6, day 6): not significantly affected | BSP expression ([3]; treated days 1-6, day 6): reduced significantly | Bax expression ([3]; treated days 1-6, day 6): not significantly affected | Bcl2 expression ([3]; treated days 1-6, day 6): not significantly affected | COLLI expression ([3]; treated days 1-6, day 6): not significantly affected | Cyclin D1 expression ([3]; treated days 1-6, day 6): reduced but it did not reach statistical significance | OPN expression ([3]; treated days 1-6, day 6): not significantly affected | c-Fos expression ([3]; treated days 1-6, day 6): not significantly affected | cbfa1 expression ([3]; treated days 1-6, day 6): reduced significantly | COLLI expression ([3]; treated days 1-6, day 15): not significantly altered | OCN expression ([3]; treated days 1-6, day 15): not significantly altered | OPN expression ([3]; treated days 1-6, day 15): not significantly altered | ALP expression [3, 4]: remained lower | BSP expression [3, 4]: remained lower | ALP expression ([3]; treated days 9-15): not BSP, COLLI or ALP were decreased | BSP expression ([3]; treated days 9-15): not BSP, COLLI or ALP were decreased | COLLI expression ([3]; treated days 9-15): not BSP, COLLI or ALP were decreased | OCN expression ([3]; treated days 9-15): decreased | OPN expression ([3]; treated days 9-15): decreased | ERRα detection in bone nodules (ERRα): almost undetectable

PTH-1-34: 1-34 PTH (Sigma)
decrease of ERRα after acute exposure (ERRα mRNA; acute exposure at day 7): 25% | decrease of ERRα after acute exposure (ERRα mRNA; acute exposure at day 16): 33% | inhibition of ERRα (ERRα mRNA; continuous 10^−11 M, day 6): 15% | increase of ERRα (ERRα mRNA; continuous 10^−11 M, day 12): 20% | inhibition of ERRα (ERRα mRNA; continuous 10^−11 M, day 15): 26%

TGFβ
effect of acute exposure on ERRα mRNA levels (ERRα mRNA): no effect | stimulation of ERRα mRNA expression at times later than day 6 (ERRα mRNA): not later | stimulation (increase) of ERRα mRNA expression (ERRα mRNA; day 6): 400%

C=C1/C(=C\C=C2/CCC[C@]3(C)[C@@H]([C@H](C)CCCC(C)(C)O)CC[C@@H]23)C[C@@H](O)C[C@@H]1O [D3, 1,25(OH)2 vitamin D3]
effect of acute exposure on ERRα mRNA levels (ERRα mRNA): no effect | stimulation of ERRα mRNA expression at times later than day 6 (ERRα mRNA): not later | stimulation (increase) of ERRα mRNA expression (ERRα mRNA; day 6): 47%

C[C@@H]1C[C@H]2[C@@H]3CCC4=CC(=O)C=C[C@]4(C)[C@@]3(F)[C@@H](O)C[C@]2(C)[C@@]1(O)C(=O)CO [Dex, dexamethasone]
effect of acute treatment on ERRα expression level (ERRα mRNA; 24 hour acute treatment of RC cells at day 9 or day 15): no effect
